Consider one molecule from article PMC4015405, “Specificity of the Receptor for the Major Sex Pheromone Component in Heliothis virescens” (Journal of Insect Science, 2013).

Each structure is given as a SMILES string.

The assay addresses T1, Or67d (Or67d^+[1]) (Drosophila melanogaster, UniProt Q9VT92).
T1 construct: native full-length receptor in trichoid T1 sensilla of living flies; with Odorant receptor coreceptor
T1 sequence (Q9VT92 1-391): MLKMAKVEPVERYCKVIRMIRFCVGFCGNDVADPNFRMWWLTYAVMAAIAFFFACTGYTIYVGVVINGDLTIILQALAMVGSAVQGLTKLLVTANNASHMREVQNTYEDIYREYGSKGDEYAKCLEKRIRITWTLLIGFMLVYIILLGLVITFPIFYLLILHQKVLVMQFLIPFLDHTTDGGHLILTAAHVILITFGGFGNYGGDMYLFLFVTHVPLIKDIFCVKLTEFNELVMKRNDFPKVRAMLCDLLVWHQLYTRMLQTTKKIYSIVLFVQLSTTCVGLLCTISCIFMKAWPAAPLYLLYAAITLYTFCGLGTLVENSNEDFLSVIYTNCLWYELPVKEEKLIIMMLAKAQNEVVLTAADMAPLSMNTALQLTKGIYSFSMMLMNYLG
T1 sequence (Q9VNB5 1-486 partner): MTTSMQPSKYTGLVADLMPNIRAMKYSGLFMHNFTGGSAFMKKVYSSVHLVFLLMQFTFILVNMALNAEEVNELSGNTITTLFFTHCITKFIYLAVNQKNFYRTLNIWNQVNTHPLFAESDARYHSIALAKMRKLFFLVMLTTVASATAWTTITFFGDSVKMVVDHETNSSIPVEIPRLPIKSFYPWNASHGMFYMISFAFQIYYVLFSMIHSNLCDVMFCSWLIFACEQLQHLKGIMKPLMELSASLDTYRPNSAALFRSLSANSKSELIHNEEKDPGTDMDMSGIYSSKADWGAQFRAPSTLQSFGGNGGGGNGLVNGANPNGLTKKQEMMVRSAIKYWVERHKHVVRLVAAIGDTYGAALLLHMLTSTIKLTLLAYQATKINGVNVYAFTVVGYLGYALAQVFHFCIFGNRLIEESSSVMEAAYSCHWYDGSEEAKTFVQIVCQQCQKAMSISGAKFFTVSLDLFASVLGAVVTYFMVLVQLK
The assay can be described thus: single sensillum recording, Drosophila T1 trichoid sensilla. The format is cell-based. As to conditions: 10 μg source dose on filter paper; agonist; n = 7.

On to `CCCC/C=C\CCCCCCCCCCOC(C)=O` [Z11-16:OAc, (Z)-11-hexadecenyl acetate], for which the spikes/sec was 87 ± 15.87 spikes/sec.
